Measured values published in paper PMC10895676, “Antiviral Activity of Lipophilic Nucleoside Tetraphosphate Compounds” (Journal of Medicinal Chemistry, 2024).
Like-named read-outs stand apart in the source and are kept apart here.

Experiments:
pig liver esterase (PLE) [1] = tested on: pig liver esterase (PLE); parameters: method as in PMID 26503889; conditions: cited from earlier work
[2] = Chemical hydrolysis in aqueous buffers (PBS pH 7.3 / 8.0, citrate buffer pH 2.0), RP18-HPLC; format: physicochemical; conditions: for half-life at 1.9 mM: phosphate buffered saline
Experimental: All metabolite mixtures were analyzed and quantified by means of analytical RP18-HPLC (UV detection).
The solution was incubated at 37 °C in a thermomixer. […] for each extraction and stored at −30 °C. When testing, samples were warmed up to room temperature, and 25 or 20 μL of the liquid was taken and injected into the analytical RP-18-HPLC instrument. Further aliquots were taken for monitoring the kinetic hydrolysis.
5.88 g of citric acid and 3.58 g of NaCl were dissolved in 82 mL of hydrochloric acid (0.1 mol/L). Then, sodium hydroxide was added to adjust the pH to 2.0.

HIV-2 (ROD) [3] = test: Anti-HIV replication assay, HIV-2 (ROD) in wild-type CEM/0 cells; format: cell-based; conditions: for selectivity index (SI): CC50/EC50, HIV-2 (ROD) in CEM cells; for EC50: Human immunodeficiency virus 2, CCRF-CEM, wild-type CEM/0 cells, mean ± SD, n = 2–3, read-out: HIV-2 (ROD) EC50
Experimental: (§1) Inhibition of HIV-1(HE)- and HIV-2(ROD)-induced cytopathogenicity in wild-type CEM/0 CEM CD4^+ T-cells and thymidine kinase-deficient CEM/TK^– cell cultures was measured in microtiter 96-well plates containing ∼3 × 10^5 CEM cells/mL infected with 100 CCID50 of HIV per milliliter and containing appropriate dilutions of the test compounds. After 4–5 days of incubation at 37 °C in a CO2-controlled humidified atmosphere, virus-induced cellular effects and syncytia cell formation were examined microscopically.

HIV-1 (HE) [4] = test: Anti-HIV replication assay, HIV-1 (HE) in wild-type CEM/0 cells; format: cell-based; conditions: Human immunodeficiency virus 1, CCRF-CEM; wild-type CEM/0 cells; mean ± SD, n = 2–3; read-out: HIV-1 (HE) EC50
Experimental: as §1, with “microscopically. The EC50 (50% effective concentration) was defined as the compound concentration required to inhibit HIV-induced giant cell formation by 50%.” for “microscopically.”

[5] = PBS; cited from earlier work
HIV-2 (ROD) [6] = test: Anti-HIV replication assay, HIV-2 (ROD) in thymidine kinase-deficient CEM/TK– cells; format: cell-based; conditions: for selectivity index (SI): CC50/EC50, HIV-2 (ROD) in CEM/TK– cells; for EC50: Human immunodeficiency virus 2, CEM/TK– cells, mean ± SD, n = 2–3, read-out: CEM/TK– HIV-2 (ROD) EC50
Experimental: as §1

[7] = Cytotoxicity, inhibition of CEM/TK– cell proliferation; format: cell-based; conditions: human, CEM/TK– cells (CD4+ T-cells), read-out: toxicity CC50
[8] = Cytotoxicity, inhibition of CEM cell proliferation; format: cell-based; conditions: human, CEM cells (CD4+ T-cells), read-out: toxicity CC50
HIV-1 (HE) [9] = conditions: CEM/0 cells; cited from earlier work
CD4+ T-cell (CEM) = conditions: CEM cell proliferation; read-out: toxicity CC50; cited from earlier work
pig liver esterase (PLE) [10] = test: Enzymatic hydrolysis with pig liver esterase (PLE); format: in vitro ADME; conditions: pig liver esterase in phosphate buffer, PLE in phosphate buffer pH 7.3, 37 °C, read-out: PLE t1/2 (converted)
Experimental: To confirm the enzymatic hydrolysis process, TetraPPPPro-nucleotides 4–9 bearing different kinds of lipophilic groups attached to the δ-phosph(on)ate group were incubated with PLE in phosphate buffer.
Then, 833 μL of 50 mM phosphate buffer (pH 7.3) and 125 μL of DMSO were added to the 6.0 mM hydrolysis solutions. The reaction was started by addition of 62.5 μL of PLE in phosphate buffer (100 units/mL), and the mixture was incubated at 800 rpm at 37 °C in a thermomixer. (1). At different times, aliquots (75 μL) were taken and stopped by the addition of […] of MeOH. The mixture was stored in liquid nitrogen. When testing, samples were warmed up to room temperature, and 60 μL of the liquid was directly injected into HPLC analysis. (2). 40 μL for each extraction was stored in liquid nitrogen. When testing, samples were warmed up to room temperature, and 30 μL of the liquid was taken and injected into the analytical RP-18-HPLC instrument. The calculation of t1/2 was performed analogously to that for the chemical hydrolysis studies.

[11] = Hydrolysis in citrate-stabilized human plasma; format: in vitro ADME; conditions: 37 °C, read-out: t1/2 in citrate-stabilized human plasma (converted)
Experimental: Finally, the supernatant was divided into aliquots and frozen at −80 °C.
(§2) Two different samples, including 10 μL of water and 10 μL of 6.0 mM hydrolysis solution, were prepared in 2 mL Eppendorf vials. Next, 50 μL of human CEM cell extracts or 50 μL of human citrate plasma were added to the mixture, the reaction was started, and the mixture was incubated at 37 °C for different time periods. The reactions were stopped by the addition of 150 μL of MeOH. The resulting suspension was kept on ice for 5 min, followed by defrosting and centrifugation at 14,000 rpm (Heraeus, Biofuge Pico) for 22 min. The supernatants (80 or 60 μL) were directly injected into HPLC. The calculation of t1/2 was performed analogously to that for the chemical hydrolysis studies.

[12] = Hydrolysis in CEM/0 cell extracts; format: in vitro ADME; conditions: human, 37 °C, read-out: CEM/0 cell extracts t1/2 (converted)
Experimental: Next, TetraPPPPro-nucleotides 4–9 were incubated in human CD4^+ T-lymphocyte CEM/0 cell extracts to study their stability and identify the hydrolysis products.
CEM cells were grown in RPMI-1640-based cell culture medium to a final density of ∼3 × 10^6 cells/mL. Cells were centrifuged for 10 min at 1250 rpm at 4 °C and washed twice with cold PBS, and the pellet was resuspended at 10^8 cells/mL and sonicated (Hielscher Ultrasound Techn., 100% amplitude, 3·times for 10 s) to destroy cell integrity. Next, the resulting cell suspension was centrifuged at 10,000 rpm to remove cell debris. Finally, the supernatant was divided into aliquots and frozen at −80 °C.
as §2, with “6.0 mM hydrolysis solutions of compounds 4–9 were prepared from 21 μL of 50 mM DMSO stock solutions and 154 μL of DMSO. Two” for “Two”

[13] = PBS, pH 8.0, 37 °C, read-out: PBS pH 8.0 t1/2 (converted)
[14] = 25 mM PBS, pH 7.3, 37 °C, read-out: PBS pH 7.3 t1/2 (converted)

half-life at 1.9 mM [2, 13] [h]	EC50 (HIV-2 (ROD) [3]) [µM]	EC50 (HIV-1 (HE) [4]) [µM]	EC50 (HIV-2 (ROD) [6]) [µM]	half-life at 0.45 mM (pig liver esterase (PLE) [10]) [h]	half-life at 0.86 mM [11] [h]	half-life at 0.86 mM [12] [h]	half-life ([2]; 25 mM citrate buffer, pH 2.0, 37 °C) [h]	half-life at 1.9 mM [2, 14] [h]	Structure (SMILES)	PLE t1/2 (pig liver esterase (PLE) [1])	selectivity index (SI) (HIV-2 (ROD) [3])	PBS pH 7.3 t1/2 [5]	selectivity index (SI) (HIV-2 (ROD) [6])	CC50 [7] [µM]	CC50 [8] [µM]	EC50 (HIV-1 (HE) [9]) [µM]	CC50 (CD4+ T-cell (CEM)) [µM]
68	0.066 ± 0.026	0.042 ± 0.02	0.29 ± 0.19	–	–	–	–	–	CCCCCCCCCC(=O)Oc1ccc(COP(=O)(OCc2ccc(OC(=O)CCCCCCCCC)cc2)OP(=O)(O)OP(=O)(O)OC[C@@H]2C=C[C@H](n3cc(C)c(=O)[nH]c3=O)O2)cc1 [1a, γ-(AB-C9; AB-C9)-d4TTP, reference compound]	0.082[43] h	1109	44[43] h	172	50	73.2	–	–
–	–	–	–	–	–	–	–	–	CCCCCCCCCCCCCCCCCCP(=O)(OCc1ccc(OC(=O)CCCC)cc1)OP(=O)(O)OP(=O)(O)OC[C@@H]1C=C[C@H](n2cc(C)c(=O)[nH]c2=O)O1 (stereo partly shown) [2b, γ-(AB-C4)-γ-C-(C18)-d4TTP]	–	–	646 h	–	–	–	0.0074 ± 0.0014	19
–	–	–	–	–	–	–	–	–	CCCCCCCCCCCCCCCCCCOP(=O)(OCCCC)OP(=O)(O)OP(=O)(O)OC[C@@H]1C=C[C@H](n2cc(C)c(=O)[nH]c2=O)O1 (stereo partly shown) [3a, γ-(alkyl-C4; alkyl-C18)-d4TTP]	–	–	–	–	–	–	–	30
–	–	–	–	–	–	–	–	–	CCCCCCCCCCCCCCCCCCP(=O)(OCCCC)OP(=O)(O)OP(=O)(O)OC[C@@H]1C=C[C@H](n2cc(C)c(=O)[nH]c2=O)O1 (stereo partly shown) [3b, γ-(alkyl-C4)-γ-C-(alkyl-C18)-d4TTP]	–	–	> 1700 h	–	–	–	–	33
99	0.063 ± 0.032	0.083 ± 0.018	0.059 ± 0.054	1.06	2.1	6.67	27	77	CCCCCCCCCCCCCCCCCCOP(=O)(OCc1ccc(OC(=O)CCCC)cc1)OP(=O)(O)OP(=O)(O)OP(=O)(O)OC[C@@H]1C=C[C@H](n2cc(C)c(=O)[nH]c2=O)O1 (stereo partly shown) [compound 6, δ-(AB-C4; alkyl-C18)-d4T4P]	–	643	–	813	48	40.5	–	–
–	0.26 ± 0.14	0.39 ± 0.16	4.44 ± 1.54	0.07	2.8	1.37	–	26	CCCCCCCCCC(=O)Oc1ccc(COP(=O)(OCc2ccc(OC(=O)CCCCCCCCC)cc2)OP(=O)(O)OP(=O)(O)OP(=O)(O)OC[C@@H]2C=C[C@H](n3cc(C)c(=O)[nH]c3=O)O2)cc1 [compound 8, δ-(AB-C9; AB-C9)-d4T4P]	–	173	–	11	50	45	–	–
